Results from patent US11753407B2, “Compounds for treating spinal muscular atrophy” (PTC Therapeutics, Inc., priority 2012, dated 2023).

Columns and labels:
[1] = tested on: SMN2 minigene mRNA (SMN2-A minigene) in HEK293H cells; experiment: SMN2 minigene mRNA splicing RT-qPCR assay in cultured cells; type: cell-based, human; settings: Homo sapiens, HEK293-H; concentration increasing full length SMN2 mRNA 1.5-fold relative to vehicle-treated cells; HEK293H cells with SMN2-A minigene, 24 hours, 7-point concentration data; read-out: EC1.5x for production of full length SMN2 mRNA
Summary of the method: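 EC1.5× = concentration raising full-length SMN2 minigene mRNA 1.5-fold over vehicle, from 7-point curves in duplicate. Stably transfected HEK293H cells exposed 24 h at 37 °C; lysates assayed by multiplex RT-qPCR, minigene FL signal normalized to GAPDH via modified ΔΔCt.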

[2] = tested on: Smn protein in SMA patient fibroblast cells (GM03813); experiment: Smn protein assay in cultured cells (SMN HTRF); type: cell-based, human; settings: SMA patient fibroblast cells, 48 hours; for maximum fold (Fold) increase of Smn protein: 7-point concentration data, fold relative to vehicle control; for EC1.5x for Smn protein expression: 7-point concentration curve, SMN HTRF, concentration producing 1.5 times Smn protein vs DMSO vehicle control
Summary of the method: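 Smn protein quantified by HTRF with anti-SMN d2/kryptate pair, 665/620 nm ratio blank-corrected, in RIPA lysates of GM03813 fibroblasts after 48 h compound exposure (7 concentrations, 3.16-fold steps, triplicates). Values: concentration producing 1.5× vehicle Smn level, and maximal fold increase.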

melting point	SMILES	EC (1.5-fold increase) [1] [µM]	maximum fold (Fold) increase of Smn protein [2]	EC1.5x for Smn protein expression [2]
158 to 160 °C	CCN1CCN(c2ccc3nc(-c4cccc(OC)c4)cc(=O)n3c2)CC1 [Compound 26, 7-(4-ethylpiperazin-1-yl)-2-(3-methoxyphenyl)-4H-pyrido[1,2-a]pyrimidin-4-one]	3 to 30	** (a fold increase between >1.2 and ≤1.35 is indicated by two stars (**))	
130 to 132 °C	COc1cccc(-c2cc(=O)n3cc(N4CCCN(C)CC4)ccc3n2)c1 [Compound 28, 2-(3-methoxyphenyl)-7-(4-methyl-1,4-diazepan-1-yl)-4H-pyrido[1,2-a]pyrimidin-4-one]	3 to 30	** (a fold increase between >1.2 and ≤1.35 is indicated by two stars (**))	
153 to 158 °C	COc1ccc(-c2cc(=O)n3cc(N4CCN[C@@H](C)C4)ccc3n2)cc1OC [Compound 30, 2-(3,4-dimethoxyphenyl)-7-[(3S)-3-methylpiperazin-1-yl]-4H-pyrido[1,2-a]pyrimidin-4-one]	< 0.1	**** (a fold increase between >1.5 and ≤1.65 is indicated by four stars (****))	** (an EC1.5× between >1 μM and ≤3 μM is indicated by two stars (**))
230 to 232 °C	O=c1cc(-c2ccc3c(c2)OCCO3)nc2ccc(N3CCNCC3)cn12 [Compound 31, 2-(2,3-dihydro-1,4-benzodioxin-6-yl)-7-(piperazin-1-yl)-4H-pyrido[1,2-a]pyrimidin-4-one]	1 to 3	* (A maximum fold increase of ≤1.2 is indicated by one star (*))	
205 to 207 °C	C[C@H]1CN(c2ccc3nc(-c4ccc5c(c4)OCCO5)cc(=O)n3c2)CCN1 [Compound 32, 2-(2,3-dihydro-1,4-benzodioxin-6-yl)-7-[(3S)-3-methylpiperazin-1-yl]-4H-pyrido[1,2-a]pyrimidin-4-one]	1 to 3	* (A maximum fold increase of ≤1.2 is indicated by one star (*))	
151 to 153 °C	O=c1cc(-c2ccccc2)nc2ccc(N3CCNCC3)cn12 [Compound 33, 2-phenyl-7-(piperazin-1-yl)-4H-pyrido[1,2-a]pyrimidin-4-one]	1 to 3	* (A maximum fold increase of ≤1.2 is indicated by one star (*))	
170 to 173 °C	C[C@H]1CN(c2ccc3nc(-c4ccccc4)cc(=O)n3c2)CCN1 [Compound 34, 7-[(3S)-3-methylpiperazin-1-yl]-2-phenyl-4H-pyrido[1,2-a]pyrimidin-4-one]	1 to 3	** (a fold increase between >1.2 and ≤1.35 is indicated by two stars (**))	
212 to 214 °C	C[C@@H]1CN(c2ccc3nc(-c4ccc5c(c4)OCCO5)cc(=O)n3c2)CCN1 [Compound 35, 2-(2,3-dihydro-1,4-benzodioxin-6-yl)-7-[(3R)-3-methylpiperazin-1-yl]-4H-pyrido[1,2-a]pyrimidin-4-one]	3 to 30	* (A maximum fold increase of ≤1.2 is indicated by one star (*))	
196 to 198 °C	CC1(C)CN(c2ccc3nc(-c4ccc5c(c4)OCCO5)cc(=O)n3c2)CCN1 [Compound 36, 2-(2,3-dihydro-1,4-benzodioxin-6-yl)-7-(3,3-dimethylpiperazin-1-yl)-4H-pyrido[1,2-a]pyrimidin-4-one]	3 to 30	* (A maximum fold increase of ≤1.2 is indicated by one star (*))	
247 to 250 °C	C[C@@H]1CN(c2ccc3nc(-c4ccc5c(c4)OCCO5)cc(=O)n3c2)C[C@H](C)N1 [Compound 37, 2-(2,3-dihydro-1,4-benzodioxin-6-yl)-7-[(3R,5S)-3,5-dimethylpiperazin-1-yl]-4H-pyrido[1,2-a]pyrimidin-4-one]	1 to 3	* (A maximum fold increase of ≤1.2 is indicated by one star (*))	
180 to 182 °C	O=c1cc(-c2ccc3c(c2)OCCO3)nc2ccc(N3CCCNCC3)cn12 [Compound 38, 7-(1,4-diazepan-1-yl)-2-(2,3-dihydro-1,4-benzodioxin-6-yl)-4H-pyrido[1,2-a]pyrimidin-4-one]	3 to 30	* (A maximum fold increase of ≤1.2 is indicated by one star (*))	
150 to 152 °C	CN1CCCN(c2ccc3nc(-c4ccc5c(c4)OCCO5)cc(=O)n3c2)CC1 [Compound 39, 2-(2,3-dihydro-1,4-benzodioxin-6-yl)-7-(4-methyl-1,4-diazepan-1-yl)-4H-pyrido[1,2-a]pyrimidin-4-one]	3 to 30	* (A maximum fold increase of ≤1.2 is indicated by one star (*))	
183 to 185 °C	COc1ccc(-c2cc(=O)n3cc(N4CCN(C)CC4)cc(F)c3n2)cc1OC [Compound 40, 2-(3,4-dimethoxyphenyl)-9-fluoro-7-(4-methylpiperazin-1-yl)-4H-pyrido[1,2-a]pyrimidin-4-one]	3 to 30	* (A maximum fold increase of ≤1.2 is indicated by one star (*))	
185 to 189 °C	O=c1cc(-c2cccc(Cl)c2)nc2ccc(N3CCNCC3)cn12 [Compound 41, 2-(3-chlorophenyl)-7-(piperazin-1-yl)-4H-pyrido[1,2-a]pyrimidin-4-one]	0.3 to 1	*** (a fold increase between >1.35 and ≤1.5 is indicated by three stars (***))	
207 to 212 °C	O=c1cc(-c2ccc(Cl)cc2)nc2ccc(N3CCNCC3)cn12 [Compound 42, 2-(4-chlorophenyl)-7-(piperazin-1-yl)-4H-pyrido[1,2-a]pyrimidin-4-one]	1 to 3	* (A maximum fold increase of ≤1.2 is indicated by one star (*))	
199 to 207 °C	O=c1cc(-c2cccc(C(F)(F)F)c2)nc2ccc(N3CCNCC3)cn12 [Compound 43, 7-(piperazin-1-yl)-2-[3-(trifluoromethyl)phenyl]-4H-pyrido[1,2-a]pyrimidin-4-one]	0.1 to 0.3	*** (a fold increase between >1.35 and ≤1.5 is indicated by three stars (***))	** (an EC1.5× between >1 μM and ≤3 μM is indicated by two stars (**))
285 °C (dec.)	O=c1cc(-c2ccc(C(F)(F)F)cc2)nc2ccc(N3CCNCC3)cn12 [Compound 44, 7-(piperazin-1-yl)-2-[4-(trifluoromethyl)phenyl]-4H-pyrido[1,2-a]pyrimidin-4-one]	1 to 3	* (A maximum fold increase of ≤1.2 is indicated by one star (*))	
183 to 187 °C	Cc1cccc(-c2cc(=O)n3cc(N4CCNCC4)ccc3n2)c1 [Compound 45, 2-(3-methylphenyl)-7-(piperazin-1-yl)-4H-pyrido[1,2-a]pyrimidin-4-one]	3 to 30	** (a fold increase between >1.2 and ≤1.35 is indicated by two stars (**))	
214 to 218 °C	O=c1cc(-c2ccc(F)cc2)nc2ccc(N3CCNCC3)cn12 [Compound 46, 2-(4-fluorophenyl)-7-(piperazin-1-yl)-4H-pyrido[1,2-a]pyrimidin-4-one]	1 to 3	*** (a fold increase between >1.35 and ≤1.5 is indicated by three stars (***))	
237 to 242 °C	O=c1cc(-c2ccc([N+](=O)[O-])cc2)nc2ccc(N3CCNCC3)cn12 [Compound 47, 2-(4-nitrophenyl)-7-(piperazin-1-yl)-4H-pyrido[1,2-a]pyrimidin-4-one]	1 to 3	*** (a fold increase between >1.35 and ≤1.5 is indicated by three stars (***))	
224 to 226 °C	COc1ccc(-c2cc(=O)n3cc(NC4CCNCC4)cc(F)c3n2)cc1OC [Compound 48, 2-(3,4-dimethoxyphenyl)-9-fluoro-7-(piperidin-4-ylamino)-4H-pyrido[1,2-a]pyrimidin-4-one]	3 to 30	* (A maximum fold increase of ≤1.2 is indicated by one star (*))	
216 to 218 °C	CN(C)c1ccc(-c2cc(=O)n3cc(N4CCNCC4)cc(F)c3n2)cc1 [Compound 49, 2-[4-(dimethylamino)phenyl]-9-fluoro-7-(piperazin-1-yl)-4H-pyrido[1,2-a]pyrimidin-4-one]	3 to 30	* (A maximum fold increase of ≤1.2 is indicated by one star (*))	
205 to 207 °C	C[C@@H]1CN(c2cc(F)c3nc(-c4ccc(N(C)C)cc4)cc(=O)n3c2)CCN1 [Compound 50, 2-[4-(dimethylamino)phenyl]-9-fluoro-7-[(3R)-3-methylpiperazin-1-yl]-4H-pyrido[1,2-a]pyrimidin-4-one]	3 to 30	** (a fold increase between >1.2 and ≤1.35 is indicated by two stars (**))	
